In PubChem BioAssay (NCI) one finds GI50 and TGI data, which are given here for eleven compounds.

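Where inhibition never reached the appropriate level, the endpoint shown equals the highest concentration tested. Otherwise, values were interpolated linearly from a five-concentration, 48-hour dose response in 96-well plates. Abbreviation: GI50, concentration required for 50% inhibition of growth. TGI: concentration producing complete growth inhibition.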 *1 amine or outer side, *2 acyl side, *3 side chain or, on linkers, in order; H or OH if unused. Where a SMILES comes first, the peptide text is derived from it. Bridges are numbered along the chain shown (N, C = ends). [ ]: non-standard residue; d: D form. The star is where a group is joined. Phe(3-Me) = Cc1cccc(C[C@H](N)C(=O)O)c1; NH(4-Cl-2-F-phenyl) = Fc1cc(Cl)ccc1N*; Pro(4R-Me) = C[C@H]1CN[C@H](C(=O)O)C1; Hyp = O=C(O)[C@@H]1C[C@@H](O)CN1; aThr = C[C@H](O)[C@H](N)C(=O)O; Pip = O=C(O)[C@@H]1CCCCN1; CO = O=C([*:1])[*:2]

Common to all, as to assay: NCI tumour cell line growth inhibition, 48 h
In test [1] the test system is MOLT-4 leukemia.
In test [2] the test system is OVCAR-4 ovarian.
For test [3], the system named is A498 renal.
The test system of test [4] is TK-10 renal.
For test [5], the system named is HS 578T breast.
For test [6], the system named is MCF7 breast.
Test [7] deals with ACHN renal.
The subject of test [8] is HCT-116 colon.
The subject of test [9] is A549 NSCLC.
In test [10] the test system is NCI-H23 lung.

For `O=C(CNC(=O)c1cccc2ccccc12)Nc1ccccc1Oc1ccccc1`, the GI50 in test [1] is 0.348 µM; in test [2], 4.54 µM; in test [3], 0.256 µM; in test [4], 0.619 µM; in test [5], 0.363 µM; in [6], 0.306 µM. For the same compound, the GI50 in test [7] is 0.833 µM; in test [8] it was 0.322 µM; in test [9], 0.459 µM; in test [10] it was 0.658 µM. Further, the TGI in test [1], in [2], in [3], in [4], in test [5] and in [6] was over 10 µM throughout. Besides, the TGI in test [7], in [8], in [9] and in test [10] was over 10 µM throughout.
On to `Fc1ccc(-c2nnc3sc(-c4cccc(Cl)c4)nn23)cc1Cl`, for which the GI50 in [1], in test [2], in test [3], in [4], in [5] and in [6] was over 100 µM throughout. Further, the GI50 in [7], in test [8], in test [9] and in test [10] was over 100 µM in each case. Besides, the TGI in test [1], in [2], in test [3], in test [4], in [5] and in test [6] was over 100 µM in each case. Also, the TGI in test [7], in [8], in [9] and in [10] was over 100 µM in each case.
As for `CCc1ccc(CCC(=O)Nc2ncc(Cc3ccccc3)s2)o1`, the GI50 in test [1] is 2.43 µM; in test [2], 27.8 µM; in test [3], 1.29 µM; in test [4] it was 23 µM; in test [5], 2.29 µM; in test [6], 0.515 µM. Further, the GI50 in test [7] is 5.68 µM; in test [8] it was 1.05 µM; in test [9], 4.47 µM; in test [10], 4.47 µM. In addition, the TGI in test [1] is over 100 µM; in [2], over 100 µM; in test [3] it was 8.87 µM; in test [4] it was over 100 µM; in test [5], over 100 µM; in test [6], over 100 µM. Also, the TGI in test [7], in test [8], in [9] and in test [10] was over 100 µM each time.
Take `CCC(C)/C=C(C)/C=C/C(=O)c1c(O)c(-c2ccc(O)cc2)c[nH]c1=O` (stereo not given): the GI50 in [1] was 2.73 µM; in test [2], 4.13 µM; in [3], 2.03 µM; in test [4], 4.32 µM; in test [5], 2.49 µM; in [6], 2.9 µM. For the same compound, the GI50 is 3.53 µM in test [7], 3.39 µM in test [8], 4.3 µM in test [9] and 3.62 µM in test [10]. In addition, the TGI was 15.1 µM in test [1]; 25.3 µM in test [2]; 16.4 µM in [3]; 15.3 µM in [4]; 9.56 µM in test [5]; 15 µM in [6]. Moreover, the TGI worked out at 14.2 µM in test [7], 13.1 µM in [8], 20.1 µM in test [9] and 17.6 µM in [10].
In the case of `Cc1cccc(C[C@H](NC(=O)Nc2ccc(Cl)cc2F)C(=O)N[C@@H]2C(=O)N3C[C@H](O)C[C@H]3C(=O)N3CCCC[C@H]3C(=O)N[C@@H](C)C(=O)N3C[C@H](C)C[C@H]3C(=O)O[C@H]2C)c1` ({NH(4-Cl-2-F-phenyl)-CO}-[Phe(3-Me)][aThr][Hyp][Pip]A[Pro(4R-Me)]; ester 2-C), the GI50 in [1] is 0.876 µM; in [2], 0.324 µM; in test [3], 0.327 µM; in [4], 1.78 µM; in test [5], 0.455 µM; in [6], 0.391 µM. Also, the GI50 in test [7] was 2.11 µM; in [8], 0.404 µM; in test [9], 0.505 µM; in test [10], 0.551 µM. In addition, the TGI in [1] was found to be 6.28 µM; in [2] it was 2.68 µM; in test [3], 2.15 µM; in [4], 10.1 µM; in test [5] it was 3.58 µM; in [6], 3 µM. The TGI worked out at 6.16 µM in test [7], 1.66 µM in [8], 12.1 µM in test [9] and 3.72 µM in test [10].
For `O=C(Nc1ccc(Nc2ccncc2)cc1)c1ccc(Nc2ccnc3ccc([N+](=O)[O-])cc23)cc1`, the GI50 in [1], in test [2], in [3], in [4], in [5] and in [6] was over 100 µM each time. The GI50 in test [7], in test [8], in test [9] and in test [10] was over 100 µM each time. Further, the TGI in test [1], in test [2], in [3], in [4], in [5] and in [6] was over 100 µM in each case. For the same compound, the TGI in [7], in [8], in [9] and in test [10] was over 100 µM throughout.
Consider `CNC1NC(=O)c2ccccc2N1Cc1ccc(F)cc1` (stereo not given), for which the TGI in [1], in test [2], in [3], in [4], in test [5] and in test [6] was over 100 µM in each case. Further, the TGI in [7], in test [8], in test [9] and in test [10] was over 100 µM throughout.
As for `COc1cc2c(OC)c(c1)CCCC1=CC(=O)C=C(CCC2)C1=O`, the TGI in test [1] was 15.7 µM; in test [2], 31.1 µM; in test [3], over 100 µM; in [4], over 100 µM; in test [5], over 100 µM; in [6], over 100 µM. Besides, the TGI in test [7] was over 100 µM; in test [8], 38.1 µM; in test [9] it was over 100 µM; in test [10], over 100 µM.
Regarding `C=C(CN1CCN(c2ccccc2F)CC1)c1ccc(C(=O)Nc2ccccc2N)cc1`, the GI50 in [1] was 0.549 µM; in test [2] it was 5.01 µM; in test [3], 2.51 µM; in test [4], 1.7 µM; in [5], 3.14 µM; in test [6], 0.889 µM. Further, the GI50 in test [7] is 2.77 µM; in test [8], 0.957 µM; in [9], 3.52 µM; in test [10], 1.87 µM. For the same compound, the TGI in test [1] is 4.86 µM; in test [2], over 100 µM; in test [3], 22.9 µM; in [4] it was 59.8 µM; in test [5], over 100 µM; in test [6], over 100 µM. The TGI is over 100 µM in test [7], 13.5 µM in test [8], 35.4 µM in test [9] and 8.88 µM in test [10].
As for `COc1ccc(/C=C(\C#N)c2cc(OC)c3c(c2)OCO3)cc1`, the GI50 in [1] was 0.0402 µM; in test [2] it was 0.0617 µM; in test [3] it was under 0.01 µM; in test [4], 0.56 µM; in test [5], 0.01 µM; in [6], under 0.0118 µM. For the same compound, the GI50 is 0.0449 µM in test [7], under 0.0121 µM in [8], under 0.0148 µM in test [9] and under 0.0143 µM in test [10]. In addition, the TGI is over 100 µM in test [1]; over 66.6 µM in test [2]; 0.193 µM in [3]; 41.1 µM in test [4]; 39.1 µM in test [5]; 19.8 µM in test [6]. Also, the TGI in test [7] came to 67.7 µM; in test [8], 4.39 µM; in [9] it was 44.1 µM; in test [10] it was 24.3 µM.
In the case of `COc1cc(-c2cn(-c3ccc(Cl)cc3)c(=O)[nH]2)cc(OC)c1OC`, the GI50 is 0.0199 µM in test [1]; over 100 µM in test [2]; over 100 µM in test [3]; over 100 µM in test [4]; over 100 µM in test [5]; over 100 µM in test [6]. For the same compound, the GI50 in test [7], in test [8], in [9] and in test [10] was over 100 µM throughout. In addition, the TGI was 8.86 µM in test [1]; over 100 µM in test [2]; over 100 µM in test [3]; over 100 µM in [4]; over 100 µM in [5]; over 100 µM in [6]. Moreover, the TGI in test [7], in [8], in [9] and in test [10] was over 100 µM throughout.
